The ED50 is the midpoint of the dose-response relation. Lower therefore signals greater potency.

The results in this text go back to patent US12486218B2, “Compounds advantageous in the treatment of central nervous system diseases and disorders” (AurimMed Pharma, Inc., priority 2008, dated 2025).

Structures are written as SMILES.

The test system of data set [1] is SMN2 promoter. Put plainly: SMN2 promoter β-lactamase reporter assay in NSC34 motor neuron-like cells. The class given is cell-based. Particulars: for SMN2 promoter activity: treatment for 19 hours at a concentration of 1 μM; for Promoter (SMN2 promoter test, summary YES/NO): Table 13 summary. On the procedure: FIG. 30 illustrates a screen for SMN2 expression of a number of compounds described herein.
SMN2 promoter activity was measured using NSC34 motor neuron-like cells stably transfected with a β-lactamase (BLA) reporter gene under the control of a 3.4-kilobase fragment of the SMN2 promoter. D156844 was used as a positive control for this assay.

The subject of data set [2] is mice. Put plainly: Effects observed in mice after i.p. injection (CNS stimulation, diarrhea). Particulars: for effect produced in the mice: 30 minutes after i.p. injection of 100 mg/kg. The class given is in vivo. On the procedure:
In addition, two further tertiary amide compounds, BJ and BT, produced diarrhea in the mice 30 minutes after i.p. injection of 100 mg/kg of each.

In data set [3] the test system is mice. Briefly: Subcutaneous Metrazol Seizure threshold (s.c. MET) test, mice i.p. The class given is in vivo. Conditions: for activity in the s.c. MET test: mice.
For data set [4], the system named is mice. Briefly: Corneal kindled mouse model. Particulars: mice i.p.; 100 mg/kg @ 0.25 hr. The class given is in vivo.
Data set [5] deals with rats. Put plainly: MES test, rats p.o. Format: in vivo. Conditions: at 30 mg/kg.
Data set [6] deals with mice. Briefly: Maximal Electroshock Seizure (MES) test, mice i.p. The class given is in vivo. Conditions: for activity in the MES test: mice, at 100 mg/kg. Background: In the maximal electroshock model the usual endpoint is tonic extension of the hind limbs.
In data set [7] the test system is mice. Briefly: 6 Hz (minimal clonic seizure) model, mice i.p. The class given is in vivo. Conditions: for 6 Hz (32 mA), fraction of animals: mice i.p.; for activity in the 6 Hz (minimal clonic seizure) model: mice, at 100 mg/kg.
Data set [8] has as its system rat dopaminergic N27 cells. Briefly: N27 protection assay against oxidative stress (H2O2 or MPP+; MTT and LDH). The class given is cell-based. Conditions: drug 24 hours before 200 μM H2O2 or 640 μM MPP+. From the text:
FIGS. 20A-25D data are shown illustrating neuroprotective and neuroregenerative effects observed in rat dopaminergic N27 cells. Rat dopaminergic N27 cells are commonly used in in vitro and in vivo model systems for studying Parkinson's disease. Parkinson's disease is a neurodegenerative disorder of the central nervous system that affects more than 6 million people worldwide. The motor symptoms of Parkinson's disease result from the death of dopamine generating cells in the substantia nigra, a region of the midbrain.
The N27 rat dopaminergic neuron cell line was harvested from E12 rat mesencephalic tissue and was transfected with SV40 to immortalize the cell line. The N27 cell line, when injected into the striata of 6-hydroxydopamine-lesioned rats (an animal model of PD) caused a time-dependent improvement in neurological deficits. This immortalized cell line has been carefully characterized in studies of dopamine biosynthesis, neurotoxicity and used as a dopaminergic neuron model studies.
The N27 in vitro Parkinson's disease model included a test of cell viability and cell toxicity in response to exposure to oxidative stress (e.g., either 200 μM H2O2 or 640 μM MPP+).
Cell viability was tested using the MTT assay. The MTT assay is a colorimetric analysis based on the activities of mitochondrial NAD(P)H-dependent cellular oxidoreductase enzymes. These enzymes are capable of reducing the tetrazolium dye, MTT [3-(4,5-dimethylthiazol-2-yl)-2,5-diphenyltetrazolium] bromide, to an insoluble formazan (purple). […] More viable cells equal more accumulation of the insoluble formazan dye.
Cell toxicity was tested using the […] (LDH) assay. Cells that are stressed secrete LDH. In general, the more cells are stressed, the LDH they secrete into their media. The LDH assay is a reliable colorimetric assay to measure quantitatively the […] (LDH) that is released into the cell culture media from damaged cells as a biomarker for cytotoxicity and cytolysis.
FIGS. 20A-25D present data from two types of assays: protection and recovery assays. In the protection assays, the drug candidate was applied to the cells at various concentrations for 24 hours, followed by the exposure to oxidative stress (either 200 μM H2O2 or 640 μM MPP+) for measuring neuroprotective effect. H2O2 provides a broad measure of oxidative stress, while MPP+ gives a more specific oxidative stress to dopaminergic neurons.
The protection assay results are shown in panels A-C of FIGS. 20-25 In the recovery assays, the cells were first damaged by exposure to H2O2 and then various concentrations of the drug were applied to the cells. The results for the recovery assays are shown the D panels of FIGS. 20-25.

Data set [9] deals with rats. Put plainly: Pilocarpine-induced Status Epilepticus in Rats (prevention; intervention @ 30 min). Conditions: Rattus norvegicus, read-out: Prevention, Protection.
Protocol: The animal testing was performed using the protocols developed in the Anticonvulsant Screening Program (ASP) at the National Institute of Neurological Disorders and Stroke (NINDS), National Institutes of Health (NIH).
For data set [10], the system named is type II SMA fibroblasts (GM03813). Put plainly: SMN protein localization, gem counting in type II SMA fibroblasts. Format: cell-based. Particulars: 100 nM-10 μM, 5 days. On the procedure: To validate the SMN2 promoter and exon 7 screens, the effects of compounds H, H (acid form), AY, F, BX, and BY were evaluated on the basis of expression and localization of SMN protein in type II SMA fibroblasts (GM03813). In a normal cell, SMN protein localized within the nucleus to discreet foci known as gems. In SMN-deficient SMA cells, the number of gems is greatly diminished. Although the function of gems is unknown, it is believed that they are somehow involved in the snRNP assembly function of SMN. Gem counting can, therefore, be considered an assay for SMN function.
GM03813 fibroblasts were treated with different doses (100 nM-10 μM) of compounds H, H (acid form), AY, F, BX, and BY for 5 days. SMN immunostaining was then completed on these cells and the number of gems was counted in 100 randomly-selected nuclei. […] In fact, the gem counts at the highest dose of compound H approach those observed for carrier fibroblasts (GM03814). When compared against treatment with 1 μM D157495—a D156844 derivative, all of the compounds tested performed as well as or, even better than D157495.

In data set [11] the test system is mice. Put plainly: Mouse formalin pain model. Format: in vivo. Particulars: 76 mg/kg i.p., at 0.5 hours.
A short description of data set [12]: in vivo. Particulars: mouse, ip.
Protocol: The animal testing was performed according to methods known in the relevant art.

Take `CC(CC(=O)N1CCCCC1)c1ccc(OC(F)(F)F)cc1` (stereo not shown) [BH, 1-Piperidin-1-yl-3-(4-trifluoromethoxy-phenyl)-butan-1-one]: the SMN2 promoter activity result in [1] is given as “increased SMN2 promoter activity”. Besides, in data set [2] (mice, on injection), the CNS-stimulating effect observed entry is “vocalization and hyperactivity”; the “duration of vocalization and hyperactivity” value was 5 to 6 min. Further, in data set [3] (at 300 mg/kg), the “activity in the s.c. MET test” value is “activity”.

Take `NC(=O)CC(c1ccc(Cl)cc1)C1CC1` (stereo not shown) [X, 3-(4-Chloro-phenyl)-3-cyclopropyl-propionamide]: the “Promoter (SMN2 promoter test, summary YES/NO)” value in data set [1] is on record as “YES”. Also, the SMN2 promoter activity result in data set [1] is “increased SMN2 promoter activity”. Also, in data set [4], the “Corneal Kindled, Average seizure score” value is “score is 3:”. Besides, in data set [4], the “Corneal Kindled, fraction of animals” value was 2/4 @. In addition, the “activity in the MES test” value in data set [5] and in data set [6] was “activity” each time. Further, the “6 Hz (32 mA), fraction of animals” value in [7] (75 mg/kg @ 1.0 hr) was 4/4; in data set [7] (75 mg/kg @ 2.0 hr) it was 2/4; in data set [7] (75 mg/kg @ 4.0 hr), 1/4 @. The “neuroprotective effect against H2O2 and MPP+ oxidative stresses (MTT and LDH assays)” value (shortened to “neuroprotective effect”) in data set [8] is “statistically significant, dose-dependent neuroprotection”. Also, the “activity in the s.c. MET test” value in [3] (at 300 mg/kg) is “activity”.

Consider `CC(CC(N)=O)c1ccc(N2CCOCC2)cc1` (stereo not shown) [Compound AY, 3-(4-Morpholin-4-yl-phenyl)-butyramide], for which the SMN2 promoter activity result in data set [1] is reported as “increased SMN2 promoter activity”. The “6 Hz (32 mA), fraction of animals” value in data set [7] (100 mg/kg @ 1.0 hr) is listed as 1/4. In addition, the “activity in the 6 Hz (minimal clonic seizure) model” value (“activity in the 6 Hz” below) in data set [7] is “activity”. Moreover, in data set [9], the responders at 600 mg/kg turned out to be 38%. The “gem counts (SMN immunostaining, 100 nuclei)” value in data set [10] is “increase gem counts in a dose-dependent manner”.

For `C[C@@H](CC(N)=O)c1ccc(OC(F)(F)F)cc1` (single isomer, unassigned) [BY, S-(+)-3-(4-Trifluoromethoxy-phenyl)butyramide], the “6 Hz (32 mA), fraction of animals” value in [7] (100 mg/kg @ 0.25 hr) was 1/4. Also, the “6 Hz (32 mA), fraction of animals” value in data set [7] (100 mg/kg @ 0.5 hr) is 2/4. Moreover, in data set [10], the “gem counts (SMN immunostaining, 100 nuclei)” value was “increase gem counts in a dose-dependent manner”. Further, in data set [8], the “neuroprotective effect” value is on record as “potent dose-dependent neuroprotective effects”. Also, in data set [11], the “pain response, acute phase” value was 53 % of the control and the “pain response, inflammatory phase” value is listed as 24 % of the control. The same compound came in with a TD50 at 0.25 hr in data set [12] of 104 mg/kg.

For `CCN(C)C(=O)CC(C)c1ccc(OC(F)(F)F)cc1` (stereo not shown) [BE, N-Ethyl-N-methyl-3-(4-trifluoromethoxy-phenyl)-butyramide], the “activity in the MES test” value in data set [5] and in data set [6] was “activity” throughout. Moreover, the “MES, fraction of animals” value in data set [6] (mice i.p., 100 mg/kg @ 0.5 hr) is 1/3 @. Besides, the CNS-stimulating effect observed entry in data set [2] (mice, 300 mg/kg i.p., 30 minutes after injection) is “tremors”. Moreover, in [7] (100 mg/kg @ 0.5 hr), the “6 Hz (32 mA), fraction of animals” value was 2/4 @ 0.5 hr,.

On to `CCC(CC(N)=O)c1ccc(C(F)(F)F)cc1` (stereo not shown) [Compound AA, 3-(4-Trifluoromethylphenyl)-pentanamide], for which the “SMN2 promoter assay, particularly strong hits” value in [1] (NSC34 BLA reporter cells) is “particularly strong hits”. For the same compound, in data set [1], the “Promoter (SMN2 promoter test, summary YES/NO)” value is recorded as “YES”. In addition, in [1], the SMN2 promoter activity result was “increased SMN2 promoter activity”. The “activity in the MES test” value in data set [5] and in data set [6] was “activity” throughout. Moreover, the median effective dose (ED50) in [6] (Mus musculus, ip, mice i.p., @ 0.5 hrs) was 86.6 mg/kg; in [3] (Mus musculus, mice i.p., @ 0.5 hrs), 149 mg/kg. For the same compound, the “activity in the 6 Hz” value in data set [7] is given as “activity”. In data set [8], the “neuroprotective effect” value is reported as “statistically significant, dose-dependent neuroprotection”. The “activity in the s.c. MET test” value in [3] (at 300 mg/kg) was “activity”. The same compound yielded a TD50 at 0.25 hr in data set [12] of 142 mg/kg.

As for `CC(CC(=O)N1CCN(C)CC1)c1ccc(OC(F)(F)F)cc1.Cl` (stereo not shown) [BJ, 1-(4-Methyl-piperazin-1-yl)-3-(4-trifluoromethoxy-phenyl)-butan-1-one hydrochloride], the “activity in the MES test” value in data set [5] and in data set [6] was “activity” throughout. The “MES, fraction of animals” value in data set [6] (mice i.p., 100 mg/kg @ 0.25 hr) is reported as 2/3 @. Further, the “effect produced in the mice” value in data set [2] was “diarrhea”.

Consider `NC(=O)CC(c1ccc(F)cc1)C1CC1` (stereo not shown) [Y, 3-Cyclopropyl-3-(4-fluoro-phenyl)propionamide], for which the SMN2 promoter activity entry in data set [1] was “increased SMN2 promoter activity”. In addition, in data set [4], the “Corneal Kindled, Average seizure score” value is 0: (0, 0, and the “Corneal Kindled, fraction of animals” value is recorded as 4/4 @. For the same compound, the “activity in the MES test” value in data set [6] is recorded as “activity”. Besides, the “activity in the 6 Hz” value in data set [7] is “activity”. Besides, the responders at 65 mg/kg in [9] was found to be 88%. For the same compound, in data set [3] (mice i.p., 100 mg/kg @ 0.5 hr), the “s.c. MET, fraction of animals” value is listed as 2/5 @0.5 hrs,. In [3] (at 100 mg/kg), the “activity in the s.c. MET test” value is given as “activity”.

In the case of `CC(CC(=O)O)c1ccc(OC(F)(F)F)cc1` (racemic) [H (acid form)], in data set [10], the “gem counts (SMN immunostaining, 100 nuclei)” value is “increase gem counts in a dose-dependent manner” and the “relative potency in increasing gem counts” value is reported as “most potent”.

For `CC(CC(=O)N1CCCC(C(N)=O)C1)c1ccc(OC(F)(F)F)cc1` (stereo not shown) [BT, 1-[3-(4-Trifluoromethoxy-phenyl)-butyryl]-piperidine-3-carboxylic acid amide], the “effect produced in the mice” value in data set [2] is “diarrhea”.
